Broadly, the MIC50 is an inhibitory concentration at the 50% level, which refers to growth in some studies and to a panel of isolates in others. A high value points to weaker potency.

≈ marks a conversion by molar mass, not a printed value.

One assay has as its system Bacillus subtilis (ATCC 6633). Nature of the assay: broth microdilution antibacterial testing. Particulars: Bacillus subtilis, ATCC6633. Type of assay: cell-based.
For the molecule `CCN(CC)CCNc1nc(NC2CCCCCC2)nc(NC23CC4CC(CC(C4)C2)C3)n1` [c9 (Library 5)], the MIC50 was 5.6 µM (≈ 2.55 µg/mL). As to `CN(C)CCNc1nc(NC2CCCCCC2)nc(NC23CC4CC(CC(C4)C2)C3)n1` [b9 (Library 5)], the MIC50 was found to be 7 µM (≈ 2.99 µg/mL). For `CN(C)CCCNc1nc(NC2CCCCCC2)nc(NC23CC4CC(CC(C4)C2)C3)n1` [d9 (Library 5)], the MIC50 worked out at 5.7 µM (≈ 2.52 µg/mL). For the molecule `CCCCN(CCCC)CCCNc1nc(NC2CCC2)nc(NC23CC4CC(CC(C4)C2)C3)n1` [A2 (Library 5)], the MIC50 amounted to 7.9 µM (≈ 3.82 µg/mL). `CCCCN(CCCC)CCCNc1nc(NC2CCCCCCCCCCC2)nc(NC23CC4CC(CC(C4)C2)C3)n1` [A5 (Library 5)]: the MIC50 is 15.9 µM (≈ 9.48 µg/mL). On to `CCCCN(CCCC)CCCNc1nc(NC23CC4CC(CC(C4)C2)C3)nc(NC23CC4CC(CC(C4)C2)C3)n1` [A8 (Library 5)], for which the MIC50 was 39 µM (≈ 22 µg/mL). The molecule `CCCCN(CCCC)CCCNc1nc(NC23CC4CC(CC(C4)C2)C3)nc(N(CCC)CC2CC2)n1` [A10 (Library 5)] came in with an MIC50 of 5 µM (≈ 2.63 µg/mL). For the molecule `CN1CCCC1CCNc1nc(NC2CCCCCC2)nc(NC23CC4CC(CC(C4)C2)C3)n1` (stereo not drawn) [g9 (Library 5)], the MIC50 was found to be 5.9 µM (≈ 2.76 µg/mL). Same read-out and setting: the figure for `CCCCN(CCCC)CCCNc1nc(NC2CC2)nc(NC23CC4CC(CC(C4)C2)C3)n1` [Compound A1] is 16.4 µM (≈ 7.7 µg/mL); for `CCN(CC)CCCNc1nc(NCc2ccc3c(c2)OCO3)nc(NC23CC4CC(CC(C4)C2)C3)n1` [C4 (Library 5)] it is 3.5 µM (≈ 1.78 µg/mL). As for `CCCCN(CCCC)CCCNc1nc(NC2CC3CCC2C3)nc(NC23CC4CC(CC(C4)C2)C3)n1` (stereo not drawn) [A6 (Library 5)], the MIC50 is 7.6 µM (≈ 3.98 µg/mL).

In the case of `CCN(CC)CCCNc1nc(NCc2ccccc2)nc(NC23CC4CC(CC(C4)C2)C3)n1` [Compound C1], the MIC50 was found to be 10.6 µM (≈ 4.91 µg/mL). With `NCCCNc1nc(NC2CCCCCC2)nc(NC23CC4CC(CC(C4)C2)C3)n1` [f9 (Library 5)], the MIC50 stood at 4.7 µM (≈ 1.94 µg/mL). Regarding `NCCNc1nc(NC2CCCCCC2)nc(NC23CC4CC(CC(C4)C2)C3)n1` [e9 (Library 5)], the MIC50 was 5.9 µM (≈ 2.36 µg/mL). Take `CCCCN(CCCC)CCCNc1nc(NC23CC4CC(CC(C4)C2)C3)nc(N(CCCC)CCCC)n1` [Compound A9]: the MIC50 was determined as 4.4 µM (≈ 2.38 µg/mL).

Staying with this assay, now noted: library 5; ring size 12; B. subtilis.
Take `CCCCN(CCCC)CCCNc1nc(NC2CCCCCCCCCCC2)nc(NC23CC4CC(CC(C4)C2)C3)n1` [A5 (Library 5)]: the “activity decrease comparing to ring size 7 or 8 compounds” value is given as about 8 fold.

The assay is the same for the next values; noted with them: library 5 compound used as control in dye leakage.
As to `CN(C)c1nc(NC2CCCCCC2)nc(NC23CC4CC(CC(C4)C2)C3)n1` [h9 (Library 5)], the “antimicrobial activity (in words)” value is reported as “little antimicrobial activity”.

Test system in a further assay: not listed separately
The experiment in a line: calcein dye leakage. The assay is classed as biochemical. The following applies: ampicillin 70 μM. The text has this:
FIG. 1 graphically depicts the results of the measurement of the ability of a triazine compound of the invention to induce leakage of calcein, entrapped within the interior of large unilamellar vesicles of model membrane POPG. The extent of leakage of encapsulated calcein was detected by its fluorescence at 515 nm, with 100% leakage calibrated by addition of 0.2% Triton X-100.
The method of preparation of dye-encapsulated vesicles has been reported in detail. Lasch, V.; Weissig, M. Brandl in Liposomes: a Practical Approach Eds.: Taylor, K. M. G.; Craig, D.Q.M. Oxford University Press, Oxford, 2003; pp. 10-12. The results are graphically presented in FIG. 1, which presents the results of calcein leakage induced by 1% Triton, C2 (50 μM), h9 (90 μM) and ampicillin (70 μM). The fraction of leakage was calculated from the fluorescence intensity at 515 nm, with 100% leakage calibrated by addition of 1% Triton X-100.
As to `CC1(C)S[C@@H]2[C@H](NC(=O)[C@H](N)c3ccccc3)C(=O)N2[C@H]1C(=O)O` [ampicillin], the “calcein dye leakage (in words)” value is recorded as “neither ampicillin nor compound C2 caused dye leakage”.

(Values after US8163748B2, “s-Triazine compounds, pharmaceutical compositions and method of using the same” (New York University, priority 2007, dated 2012).)
